Values quoted from earlier work, collected in patent US8158147B2, “Modified release formulations of at least one form of tramadol” (priority 2002, dated 2012).
Where two headings read alike, the source gives them in different places.

Tests used:
osteoarthritis [1] = conditions: Study No. 058; 6 weeks; rofecoxib 12.5 mg, Nabumetone 1500 mg
osteoarthritis [2] = conditions: 12 weeks, celecoxib 100 mg BID, Naproxen 500 mg BID

Row | SMILES | WOMAC pain walking on a flat surface, mean difference vs placebo (osteoarthritis [1]) [mm] | LS mean difference in pain VAS change from baseline vs placebo (osteoarthritis [2]; Study No. 020) [mm] | LS mean difference in pain VAS change from baseline vs placebo (osteoarthritis [2]; Study No. 054) [mm]
1 | COc1ccc2cc(CCC(C)=O)ccc2c1 [Nabumetone] | 10 |  | 
2 | COc1ccc2cc([C@H](C)C(=O)O)ccc2c1 [Naproxen] |  | 7.6 | 11.2
3 | CS(=O)(=O)c1ccc(C2=C(c3ccccc3)C(=O)OC2)cc1 [rofecoxib, Rofecoxib] | 9.0 |  | 
